Test results: ChEMBL document CHEMBL4266003, “New Dopamine D3-Selective Receptor Ligands Containing a 6-Methoxy-1,2,3,4-tetrahydroisoquinolin-7-ol Motif” (ACS Med Chem Lett, 2018)
Calls of active or inactive are those of the source. The calls are words filed in the database; no cut-off is given here.

Columns and labels:
D(1A) dopamine receptor [1] = target: T1, D(1A) dopamine receptor (Homo sapiens, UniProt P21728); test: Displacement of [3H]SCH23390 from human dopamine D1 receptor expressed in HEKT cell membranes
T1 sequence (P21728 whole entry): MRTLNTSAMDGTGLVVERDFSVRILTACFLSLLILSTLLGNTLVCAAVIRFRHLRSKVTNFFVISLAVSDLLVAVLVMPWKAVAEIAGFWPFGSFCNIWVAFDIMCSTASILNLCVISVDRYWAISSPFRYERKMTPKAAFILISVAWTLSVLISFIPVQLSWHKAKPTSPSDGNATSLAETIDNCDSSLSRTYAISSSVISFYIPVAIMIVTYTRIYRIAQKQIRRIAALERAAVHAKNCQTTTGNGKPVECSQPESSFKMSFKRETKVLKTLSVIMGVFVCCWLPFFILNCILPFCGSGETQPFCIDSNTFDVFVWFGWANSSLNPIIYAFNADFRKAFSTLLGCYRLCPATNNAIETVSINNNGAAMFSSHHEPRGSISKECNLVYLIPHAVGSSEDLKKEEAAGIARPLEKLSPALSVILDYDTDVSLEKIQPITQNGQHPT

D(3) dopamine receptor [2] = target: T2, D(3) dopamine receptor (Homo sapiens, UniProt P35462); test: Displacement of [3H]N-Methylspiperone from human dopamine D3 receptor expressed in HEKT cell membranes
T2 sequence (P35462 whole entry): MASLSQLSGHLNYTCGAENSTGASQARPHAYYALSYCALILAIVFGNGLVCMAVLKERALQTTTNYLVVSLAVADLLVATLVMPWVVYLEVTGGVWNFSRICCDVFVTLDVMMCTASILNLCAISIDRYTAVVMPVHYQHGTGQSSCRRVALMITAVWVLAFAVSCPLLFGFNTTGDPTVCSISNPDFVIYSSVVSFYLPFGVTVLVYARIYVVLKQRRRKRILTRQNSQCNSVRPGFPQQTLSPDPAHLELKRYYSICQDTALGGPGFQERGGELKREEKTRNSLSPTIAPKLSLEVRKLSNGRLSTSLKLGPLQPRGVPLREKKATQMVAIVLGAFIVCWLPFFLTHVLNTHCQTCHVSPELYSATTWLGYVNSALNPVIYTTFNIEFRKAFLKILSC

D(4) dopamine receptor = target: T3, D(4) dopamine receptor (Homo sapiens, UniProt P21917); test: Displacement of [3H]N-Methylspiperone from human dopamine D4 receptor expressed in HEK cell membranes
T3 sequence (P21917 whole entry): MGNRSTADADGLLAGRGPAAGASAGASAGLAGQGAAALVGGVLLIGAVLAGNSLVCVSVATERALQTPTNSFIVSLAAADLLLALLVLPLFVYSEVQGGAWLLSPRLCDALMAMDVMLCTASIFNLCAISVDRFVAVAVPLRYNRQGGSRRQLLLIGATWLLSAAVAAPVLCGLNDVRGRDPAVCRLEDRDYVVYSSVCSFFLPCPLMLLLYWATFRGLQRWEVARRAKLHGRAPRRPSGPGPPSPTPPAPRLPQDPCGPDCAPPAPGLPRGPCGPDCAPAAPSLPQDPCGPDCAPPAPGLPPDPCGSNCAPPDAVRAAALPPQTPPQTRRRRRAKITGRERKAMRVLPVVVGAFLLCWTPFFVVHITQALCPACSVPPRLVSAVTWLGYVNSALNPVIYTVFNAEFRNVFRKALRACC

Homo sapiens [3] = organism: Homo sapiens; test: Selectivity ratio of Ki for human dopamine D1 receptor expressed in HEKT cell membranes to Ki for human dopamine D3 receptor expressed in HEKT cell membranes; type: cell-based
D(2) dopamine receptor [4] = target: T4, D(2) dopamine receptor (Homo sapiens, UniProt P14416); test: Inhibition of human dopamine D2 receptor expressed in HEKT cell membranes at 10 uM relative to control; type: cell-based
T4 sequence (P14416 whole entry): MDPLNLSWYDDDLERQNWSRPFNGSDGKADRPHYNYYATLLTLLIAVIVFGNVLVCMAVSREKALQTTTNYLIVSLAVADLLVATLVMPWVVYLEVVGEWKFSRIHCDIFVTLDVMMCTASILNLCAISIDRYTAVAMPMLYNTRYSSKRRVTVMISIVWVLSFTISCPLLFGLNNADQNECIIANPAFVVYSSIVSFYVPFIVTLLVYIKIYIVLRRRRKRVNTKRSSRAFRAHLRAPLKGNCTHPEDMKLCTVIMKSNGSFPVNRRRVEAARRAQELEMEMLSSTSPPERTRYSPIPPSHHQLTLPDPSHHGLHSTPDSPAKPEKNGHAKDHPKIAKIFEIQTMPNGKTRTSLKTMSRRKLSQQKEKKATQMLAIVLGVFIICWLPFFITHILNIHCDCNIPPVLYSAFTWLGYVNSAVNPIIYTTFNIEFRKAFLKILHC

D(2) dopamine receptor [5] = target: T4, D(2) dopamine receptor; test: Displacement of [3H]N-Methylspiperone from human dopamine D2 receptor expressed in fibroblasts
Homo sapiens [6] = organism: Homo sapiens; test: Selectivity ratio of Ki for human dopamine D2 receptor expressed in fibroblasts to Ki for human dopamine D3 receptor expressed in HEKT cell membranes; type: cell-based
D(1A) dopamine receptor [7] = target: T1, D(1A) dopamine receptor; test: Inhibition of human dopamine D1 receptor expressed in HEKT cell membranes at 10 uM relative to control; type: cell-based
[8] = target: T5, D(4) dopamine receptor (Homo sapiens) (UniProt P21917); test: Inhibition of human dopamine D4 receptor expressed in HEKT cell membranes at 10 uM relative to control; type: cell-based
T5 sequence (whole entry): T3 sequence (P21917 whole entry)

D(3) dopamine receptor [9] = target: T2, D(3) dopamine receptor; test: Agonist activity at human dopamine D3 receptor assessed as beta-arrestin recruitment by Tango assay; type: functional
D(3) dopamine receptor [10] = target: T2, D(3) dopamine receptor; test: Antagonist activity at human dopamine D3 receptor assessed as inhibition of beta-arrestin recruitment by Tango assay; type: functional

| Structure (SMILES) | Ki (D(1A) dopamine receptor [1]) [nM] | Ki (D(3) dopamine receptor [2]) [nM] | Ki (D(4) dopamine receptor) [nM] | Ratio Ki (Homo sapiens [3]) | inhibition (D(2) dopamine receptor [4]) [%] | Ki (D(2) dopamine receptor [5]) [nM] | Ratio Ki (Homo sapiens [6]) | inhibition (D(1A) dopamine receptor [7]) [%] | inhibition [8] [%] | Activity (D(3) dopamine receptor [9]) | EC50 (D(3) dopamine receptor [10]) [nM] |
| --- | --- | --- | --- | --- | --- | --- | --- | --- | --- | --- | --- |
| COc1cc2c(cc1O)CN(CCCCNC(=O)c1ccnc3ccccc13)CC2 | 1810 | 22 | 410 | 82 | < 50 | – | – | – | – | – | – |
| COc1cc2c(cc1O)CN(CCCCNC(=O)c1ccc(C(N)=O)cc1)CC2 | – | 28 | – | – | – | 860 | 31 | < 50 | < 50 | – | – |
| COc1cc2c(cc1O)CN(CCCCNC(=O)c1ccc(F)cc1)CC2 | – | 4.4 | 95 | – | < 50 | – | – | < 50 | – | inactive | 490 |
| COc1cc2c(cc1OC)CN(CCCCNC(=O)c1ccc(C#N)cc1)CC2 | – | 410 | – | – | < 50 | – | – | < 50 | < 50 | – | – |
| COc1cc2c(cc1O)CN(CCCCNC(=O)c1ccc(I)cc1)CC2 | 1600 | 10 | 1500 | 160 | < 50 | – | – | – | – | – | – |
| COc1cc2c(cc1O)CN(CCCCNC(=O)c1ccc(O)cc1)CC2 | – | 8.7 | 660 | – | < 50 | – | – | < 50 | – | inactive | 420 |
| COc1cc2c(cc1O)CN(CCCCNC(=O)c1ccc3ccccc3c1)CC2 | 800 | 2.7 | 170 | 296 | – | 700 | 260 | – | – | – | – |
| COc1cc2c(cc1O)CN(CCCCNC(=O)c1ccc(-c3ccccc3)cc1)CC2 | 800 | 2.7 | 720 | 296 | – | 800 | 296 | – | – | – | – |
| COc1cc2c(cc1O)CN(CCCCNC(=O)c1ccncc1)CC2 | – | 24 | 1400 | – | < 50 | – | – | < 50 | – | – | – |
| COc1cc2c(cc1O)CN(CCCCNC(=O)c1ccc(C#N)cc1)CC2 | – | 6.3 | – | – | < 50 | – | – | < 50 | < 50 | inactive | 1400 |
| COc1cc2c(cc1O)CN(CCCCNC(=O)c1ccc(Cl)cc1)CC2 | 680 | 2.1 | 140 | 323 | – | 1100 | 524 | – | – | – | – |
| COc1cccc(C(=O)NCCCCN2CCc3cc(OC)c(O)cc3C2)c1 | – | 12 | 150 | – | < 50 | – | – | < 50 | – | – | – |
| COc1cc2c(cc1O)CN(CCCCNC(=O)c1ccc(Br)cc1)CC2 | 500 | 3.4 | 350 | 147 | – | > 10000 | > 2940 | – | – | – | – |
| COc1ccc(C(=O)NCCCCN2CCc3cc(OC)c(O)cc3C2)cc1 | – | 5.9 | 560 | – | < 50 | – | – | < 50 | – | inactive | 360 |
